Test results: patent US20140255517A1, “MANAGING POST-TRAUMATIC STRESS DISORDER” (EMORY UNIVERSITY, priority 2013, published 2014)
Entries after “also recorded” stand apart in the source; their conditions may differ.

Assays:
Type in all cases: in vivo, mice
AT1R mRNA = test: Amygdala AT1R mRNA expression after extinction training (RT-qPCR); conditions: chronic losartan vs vehicle, following extinction training; t(11)=2.8, P<0.05
[1] = system: animal model of PTSD-like symptoms; test: Cued Pavlovian fear conditioning, extinction training and extinction retention after acute losartan
Procedure: 24 hr following fear acquisition, losartan (1 mg/kg or 10 mg/kg i.p) was given prior to extinction training (B, E; n=20-25/group). 24 hr following extinction training, and in the absence of drug, mice were tested for extinction retention of learned fear, expressed as total average freezing and in blocks of 5 CS tones (C,D,F,G). To further understand the mechanism by which angiotensin II blockers reduce PTSD symptoms, the effects of the selective AT1R antagonist losartan were examined in an animal model of PTSD-like symptoms. Animals were cue-fear trained using Pavlovian fear conditioning consisting of five pairings of a conditioned stimulus (CS) tone (12 kHz) co-terminating with a shock or unconditioned stimulus (US). […] Twenty-four hours later, the effects of losartan were examined on fear expression (also considered the extinction training session) to the presentation of 15 trials of CS cues in a different context. Groups were given either losartan (1 mg/kg or 10 mg/kg i.p.) or saline 40 minutes prior to fear expression/extinction training. […] Therefore in a separate group of animals, a higher dose of losartan (10 mg/kg i.p.) was examined. […] Twenty-four hours later in the absence of drug, long-term fear memory was assessed (extinction retention).

[2] = Anxiety-like behavior in elevated plus maze and open field tests
Procedure: Distance traveled during open-field testing (B) and percent time in open arms of elevated plus maze test of vehicle (C) (n=6-8/group). To determine whether losartan affects baseline levels of generalized anxiety, animals were tested in the elevated plus and open field mazes.

plasma renin = test: Plasma renin activity after 30 minutes of restraint stress; conditions: losartan for 2 weeks vs vehicle; 30 minutes restraint stress
Procedure: (§1) The hypothalamic pituitary axis (HPA) stress axis could influence the level of learned fear. In order to examine the chronic effects of losartan on the HPA, stress response was examined as well as plasma renin, a measure of endogenous angiotensin II activity. Animals were exposed to 30 minutes of restraint stress and plasma levels of corticosterone and renin measured.
(§2) As an index of central HPA neuronal activation, c-Fos activation was then examined in the paraventricular nucleus (PVN).

corticosterone = test: Plasma corticosterone after 30 minutes of restraint stress; conditions: losartan for 2 weeks vs vehicle; 30 minutes restraint stress
Procedure: as §1

[3] = Baseline blood pressure measured by radiotelemetry
Procedure: Distance traveled during open-field testing (B) and percent time in open arms of elevated plus maze test of vehicle (C) (n=6-8/group).
In order to determine whether inhibition of the renin-angiotensin system is involved in modulating fear directly or indirectly, both acute and chronic inhibition of the angiotensin type 1 receptor (AT1R) were examined using the AT1R antagonist losartan (1 mg/kg and 10 mg/kg). […] A dose of 10 mg/kg is commonly used in rodents, however the effects on baseline blood pressure are mixed. When given acutely or chronically, some studies show reductions in baseline blood pressure while others show no effect.

[4] = system: animal model of PTSD-like symptoms; test: Cued Pavlovian fear conditioning and extinction after chronic losartan infusion by osmotic mini-pump
Procedure: Extinction training/fear expression was tested and total average freezing within the session (B) and represented in blocks of 5 CS tones (C) 24 hr following fear acquisition.
The chronic effects of AT1 R antagonism on the extinction of fear to were examined. Two-week osmotic mini-pumps were implanted and losartan (10 mg/kg/day) was subcutaneously infused. […] On day 10, animals underwent Pavlovian fear conditioning as described above.

c-Fos = c-Fos activation in the paraventricular nucleus after restraint stress; conditions: chronic losartan vs vehicle, t(10)=2.3, P<0.05
From the text: as §2

[5] = chronic losartan 10 mg/kg/day vs vehicle

For `CCCCc1nc(Cl)c(CO)n1Cc1ccc(-c2ccccc2-c2nn[nH]n2)cc1` [losartan], the “amygdala AT1R mRNA expression” value (AT1R mRNA) was “significantly reduced amygdala AT1R mRNA expression; also recorded: decreased amygdala AT1 receptor mRNA expression”, the “total average freezing during extinction training/fear expression” value ([1]; losartan 1 mg/kg i.p. 40 minutes prior to extinction training, vs saline) was “no difference in total average freezing” and the “freezing during extinction retention testing” value ([1]; losartan 1 mg/kg i.p., tested 24 hours after extinction training in the absence of drug, vs saline) was “no freezing differences between groups”. For the same compound, the “total average freezing during extinction training/fear expression” value ([1]; losartan 10 mg/kg i.p. 40 minutes prior to extinction training, vs saline) was “no differences between groups in total average freezing”, the “total overall freezing during extinction retention” value ([1]; losartan 10 mg/kg i.p., 24 hours later in the absence of drug, t(48)=2.9, P<0.01) was “total overall freezing was significantly reduced” and the “freezing to CS presentation during extinction retention testing (repeated-measures 2 way ANOVA, main effect of treatment)” value ([1]; losartan 10 mg/kg i.p., F1,144=14.6, P<0.001) was “significantly less freezing to CS presentation”. For the same compound, the “freezing in blocks of five CS tone presentations during extinction retention (Bonferroni post hoc)” value ([1]; losartan 10 mg/kg i.p., P<0.05) was “significant reductions in freezing during the first and third blocks”, the “anxiety-like behavior (distance traveled, time spent in open arms)” value ([2]; acute losartan 10 mg/kg i.p. 40 minutes prior to test, vs saline) was “No differences in anxiety-like behavior” and the “generalized anxiety (percent time in center and distance traveled, open field test)” value [2, 5] was “no differences between groups”. For the same compound, the “plasma renin activity following restraint stress” value (plasma renin) was “unchanged by losartan”, the “plasma corticosterone levels following restraint stress” value (corticosterone) was “unaltered by losartan” and the baseline blood pressure ([3]; acute losartan 10 mg/kg i.p. vs saline) was “no effect on baseline blood pressure”. The baseline blood pressure [3, 5] was “no differences between groups”, the “acquisition of fear (percent freezing)” value ([4]; losartan 10 mg/kg/day subcutaneous infusion, conditioning on day 10, vs vehicle) was “no difference in the acquisition of fear; also recorded: acquired fear similarly to control groups” and the “fear expression: total average freezing or blocks of 5 CS trials” value ([4]; losartan 10 mg/kg/day subcutaneous infusion, 24 hrs after fear acquisition) was “no significant difference in total average freezing”. The “extinction retention of fear memory over the total average freezing period” value ([4]; losartan 10 mg/kg/day subcutaneous infusion, t(35)=2.4, P<0.05) was “enhanced extinction retention of fear memory”, the “freezing to CS presentation during extinction retention testing (repeated-measures ANOVA, main effect of treatment)” value ([4]; losartan 10 mg/kg/day, F1,108=8.8, P<0.005) was “significantly less freezing to CS presentation” and the “freezing in blocks of five CS tone presentations during extinction retention (Bonferroni post hoc)” value ([4]; losartan 10 mg/kg/day, P<0.05) was “significant reductions in freezing during the second block”. The “c-Fos activation in the paraventricular nucleus (PVN)” value (c-Fos) was “reduced c-Fos activation in the PVN; also recorded: less c-Fos activation in the paraventricular nucleus”.
